According to patent publication US5643958A, “Substituted amide derivatives” (Banyu Pharmaceutical Co., Ltd., priority 1994, dated 1997):

Tests used:
[1] = biological target: T1, protein-farnesyl transferase (PFT) (Rattus norvegicus, UniProt Q02293+Q04631); experiment: Inhibitory activities against protein-farnesyl transferase (PFT); type: biochemical; settings: PFT derived from rat brain; 37° C.; preincubation 10 minutes, reaction 20 minutes; read-out: 50% inhibitory concentrations against PFT activities, IC50
T1 construct: a soluble fraction of rat's brain was fractionated; from tissue; host or cells: rat brain, soluble fraction; 30-50% ammonium sulfate cut, dialysis, Q-Sepharose column
Description: PFT was separated in such a manner that a soluble fraction of rat's brain was fractionated by means of 30%-50% saturated ammonium sulfate, further dialyzed and then subjected to column chromatography by Q-cephalose™ (manufactured by Pharmacia) (Reiss et al, Cell, vol. 62, p. 81-88 (1990)).
Measurement of PFT activities was conducted by using, as a prenyl acceptor, H-ras protein or a substance that biotin was added to N-terminal of a peptide corresponding to a 7 amino acid residue at C terminal of K-rasB protein (biotin-added Lys-Thr-Ser-Cys-Val-Ile-Met) and, as a prenyl doner, [^3 H]-labeled farnesylpyrophosphate (FPP) (Reiss et al, Methods: A Companion to a Methods in Enzymology, vol. 1, No. 3, p. 241-245 (1990)).
The [^3 H]-labeled farnesylpyrophosphate (22.5 Ci/mmol) was purchased from New England Nuclear Co. Non-labeled farnesylpyrophosphate was chemically synthesized from ditriethylammonium phosphate, trans-trans-farnesol and trichloroacetonitrile and purified by XAD-2-resin column and diethylaminoethylcellulose (Cornforth et al, Methods in Enzymology, vol. 15, p. 385-390 (1969)).
H-ras protein was expressed in Escherichia coli and purified (Gibbs et al, Proc. Natl. Acad. Sci., vol. 81, p. 5704-5708 (1984)).
The PFT reaction solution containing H-ras protein as the prenyl acceptor was 25 μl, and its composition was 50 mM Hepes pH7.5/50 μM ZnCl2 /5 mM MGCl2 /20 mM KCl/5mM DTT/0.6 μM all trans [^3 H]-farnesylpyrophosphate/25 μM H-ras protein/PFT derived from rat brain (Q-sephalose fraction). The reaction temperature was 37° C., the preincubation time was 10 minutes, and the reaction time was 20 minutes. […]
The enzymatic reaction product containing H-ras protein as the prenyl acceptor, was analyzed by SDS-PAGE (sodium dodecylsulfate/polyacrylamide gel electrophoresis). […]
The measurement of PFT activities using H-ras protein as the prenyl receptor, was also analyzed by a rapid separate method. […]

[2] = tested on: farnesyl-modification of Ras protein; experiment: Inhibitory activities against farnesyl-modification of Ras protein in NIH3T3 cells transformed by activated ras gene; type: cell-based; settings: Mus musculus, 24 hours, read-out: 50% inhibitory concentrations against farnesyl-modification of Ras protein, IC50
Description: Using the compounds of the present invention, inhibitory activities against farnesyl-modification of Ras protein in NIH3T3 cells transformed by activated ras gene, were measured.
The NIH3T3 cells transformed by activated ras gene, were seeded on a culture plate and cultured for 3 days. Then, a compound of the preset invention in a predetermined concentration was added to the culture. In accordance with the method disclosed in J. Biol. Chem., vol. 268, p. 18415 (1993), the cells were cultured for 24 hours and then taken off from the plate, and the cells were dissolved. After centrifugal separation for 5 minutes under 12000 g, the supernatant was used as a cell extract. The cell extract was subjected to SDS polyacrylamide gel electrophoresis to separate farnesyl-modified Ras protein and non-farnesyl-modified Ras protein. The protein on the gel was transferred onto a nitrocellulose membrane, and an anti-Ras protein antibody was reacted as a probe (primary antibody reaction). An anti-primary antibody, a peroxidase inclusion (secondary antibody), was reacted, and then Ras protein was detected by a chemical fluorescence enhancing kit. The proportion of non-farnesyl-modified Ras protein was quantified by a densitometer and taken as the inhibitory activity.
The 50% inhibitory concentrations (IC50 values) of the compounds of the present invention against farnesyl-modification of Ras protein are shown in Table 2.

NIH/ras cells = experiment: Antitumor effects to transformed cells (NIH/ras) using active type human Ha-ras, cells transplanted subcutaneously to a nude mouse; type: in vivo; settings: once a day day 1 to 6; for Growth inhibition: day 7; for Weight of tumor, Average (g) ± standard deviation: tumor weighed day 7, control 0.22 ± 0.07
Excerpt: (Antitumor effects to transformed cells (NIH/ras) using active type human Ha-ras)
^1) Tumor inoculation: 10^6 cells were transplanted subcutaneousl
^2) Dose: Each dose was intraperitonealy administered once a day from
the first day to the sixth day after the inoculation of the cells.
^3) Weight of tumor: On the seventh day after inoculation of the
cells, the tumors were weighed.
^4) Growth inhibition: (1(average weight of tumor of the treated
group/average weight of tumor of the control group)) × 100
*and **: Statistical analysis by ttest are 5% and 1%, respectively.

[3] = 10 mg/kg/injection intraperitoneal

| IC50 [1] | IC50 [2] | SMILES | other results |
| --- | --- | --- | --- |
| 0.15 nM | 7.7 µM | C[C@H]([C@H](C/C=C/c1nc2ccccc2o1)c1ccc2c(c1)OCO2)N(Cc1ccc2ccccc2c1)C(=O)CC(C(=O)O)C(CC(=O)O)C(=O)O (mixture of isomers) [Example 45, 4-[N-{(1RS,2RS,4E)-5-(2-benzoxazolyl)-1-methyl-2-(3,4-methylenedioxyphenyl)-4-pentenyl}-N-(2-naphthylmethyl)carbamoyl]-1,2,3-butanetricarboxylic Acid] |  |
|  | 18 µM | C[C@H]([C@H](C/C=C/c1nc2ccccc2o1)c1ccc2c(c1)OCO2)N(Cc1ccc2ccccc2c1)C(=O)CC(CC(=O)O)(C(=O)O)C(=O)O (racemic) [Example 46, 3-[N-{(1RS,2RS,4E)-5-(2-benzoxazolyl)-1-methyl-2-(3,4-methylenedioxyphenyl)-4-pentenyl}-N-(2-naphthylmethyl)-carbamoyl]-1,2,2-propanetricarboxylic Acid] |  |
| 0.53 nM |  | COC(=O)c1ccc([C@H](C/C=C/c2nc3ccccc3o2)[C@H](C)N(Cc2ccc3sccc3c2)C(=O)C[C@@H](CC(=O)O)C(=O)O)cc1 (relative stereo) [Example 34, (2R^*)-2-[N-(5-benzo[b]thienylmethyl)-N-{(1RS,2RS,4E)-5-(2-benzoxazolyl)-2-(4-methoxycarbonylphenyl)-1-methyl-4-pentenyl}carbamoylmethyl]succinic Acid] |  |
| 0.46 nM |  | CC(C(CC=Cc1nc2ccccc2o1)c1ccc2c(c1)OCO2)N(Cc1ccc2ccccc2c1)C(=O)C(O)CCC(=O)O (stereo not drawn) [Example 59, Sodium 4-[N-{(1RS,2RS,4E)-5-(2-benzoxazolyl)-1-methyl-2-(3,4-methylenedioxyphenyl)-4-pentenyl}-N-(2-naphthylmethyl)]carbamoyl-4-hydroxybutanoate] |  |

| SMILES | IC50 [1] | IC50 [2] | other results |
| --- | --- | --- | --- |
| C[C@H]([C@H](C/C=C/c1nc2ccccc2o1)c1ccc2c(c1)OCO2)N(Cc1ccc2ccccc2c1)C(=O)C(O)=C(CC(=O)O)C(=O)OC(C)(C)C [Example 69, 4-[N-{(1R,2R,4E)-5-(2-benzoxazolyl)-1-methyl-2-(3,4-methylenedioxyphenyl)-4-pentenyl}-N-(2-naphthylmethyl)carbamoyl]-3-tert-butoxycarbonyl-4-hydroxy-3-butenoic Acid] |  | 4.5 µM | Growth inhibition (NIH/ras cells; [3]): 23%; Weight of tumor, Average (g) ± standard deviation (NIH/ras cells; [3]): 0.17 ± 0.09 g; Growth inhibition (NIH/ras cells; 30 mg/kg/injection intraperitoneal): 59%; Weight of tumor, Average (g) ± standard deviation (NIH/ras cells; 30 mg/kg/injection intraperitoneal, ** t-test 1%): 0.09 ± 0.05 g |
